“Also recorded” adds a separate entry of the source. Where no end group is shown, it is not given here. [ ]: non-standard residue; d: D form. Nle = CCCC[C@H](N)C(=O)O

Experiment [1] can be described thus: Unspecified test of effectiveness of AII fragments. The following applies: test not specified.
Experiment [2] has as its system cultured cells that are involved in wound repair. The following applies: cited from earlier work.
For a further experiment, the system named is rabbit corneal eye. The following applies: rabbit corneal eye model; cited from earlier work.
Experiment [3] concerns primary human keratinocytes. The conditions noted are these: via a non-AT1, non-AT2 receptor; cited from earlier work.
Experiment [4] relates to chick chorioallantoic membrane. The following applies: chick chorioallantoic membrane model; cited from earlier work.
The next experiment deals with wound tissue. The conditions noted are these: application to wound tissue; cited from earlier work.
Experiment [5] deals with full thickness incision wounds. Briefly: Rat full thickness incision model (Example 2). The class given is in vivo, Sprague Dawley rats. The conditions noted are these: for early inflammation and wound dehiscence / number of incisions that were free of scar / overall scar formation: into the subcutaneous space prior to closure with DermaBond; for early inflammation and wound dehiscence: FIG. 1, day 5; for number of incisions that were free of scar: later time points after healing, FIG. 2, days 14, 19, 21; for overall scar formation: later time points, FIG. 3, scar score rank days 14 and 19; for healing time / number of incisions with no scar by gross observations: repeated; for healing time: systemic administration (especially pretreatment with 100 μg/kg body weight/day of 9GD), FIGS. 4-6; for number of incisions with no scar by gross observations: systemic administration, FIGS. 7-9, days 14 and 21. On the procedure:
This study was designed to compare the effect of a daily administration of AII(1-7) and 9GD on the healing of full thickness incision wounds in a rat model. For topical administration, the viscous vehicle was prepared from carboxymethylcellulose (CMC sodium salt, low viscosity, Sigma Chemical CO., St. Louis, Mo. (Lot number 34H0310)), consisting of 10% low viscosity CMC in 0.05 M phosphate buffer, pH 7.2, and was sterilized by autoclaving followed by mixing with sterile peptide solutions or DermaBond (provided by Ethicon, Inc.), AII(1-7) and 9GD were prepared by Bachem (Torrence, Calif.) under GMP conditions.
During the experimental period, Sprague Dawley rats (5 per group) were used in this study. The rats were housed one per cage in the University of Southern California vivarium on a 12:12 hour light/dark cycle. Food and water were available ad libitum.
On the dorsal surface of the rats, two full thickness incisions (approximately 3 cm in length) were made on a prepared surface under aseptic conditions. After injury, placebo or AII(1-7) (100 μg/wound [topical], or 100 μg/kg body weight [systemic]) or 9GD (10, 100, or 500 μg/wound [topical], or 10, 100, or 500 μg/kg body weight [systemic]) was administered. The wound was sutured closed (if the peptide was not given in an adhesive base) or was closed with […] (in groups that have the peptide administered with cyanoacrylate (DermaBond™)).
The animals were monitored for breathing, urination, and movement during the postoperative interval. Postoperative analgesic included twice daily administration of bupronex for 3 days post-operation. […] On day 21, the rats were euthanized by CO2 asphyxiation and tissues were harvested for histologic preparation.
Scar formation was assessed grossly, including assessment of inflammationh, dehiscence, scabbing, healing (defined as % of incision healed), and scarring. Inflammation, dehiscence, scabbing, and scarring were assessed on a 4 point scale (0, 1, 2, or 3) for none, mild, moderate, and severe, respectively. The severity of the scar was defined by the appearance of disruption, the contour of the healing site, the raising of the healing area, and the ability to note by gross observation that the wound had been made.

Experiment [6] deals with 2 cm midline laparotomy incision. The experiment is described as follows: Anti-scarring effect after rat laparotomy (Example 1). The class given is in vivo, Sprague Dawley rats. The following applies: 100 μg/kg/day subcutaneously, 3 days prior to surgery and 11 days until necropsy; 11 day post-operative observation. On the procedure:
Female Sprague Dawley rats, weighing between 175 and 225 grams each, were used in this study. The rats were quarantined at least two days prior to surgery. The rats were housed in the University of Southern California vivarium on a 12:12 hour light/dark cycle. Food and water were available ad libitum except in the immediate postoperative period.
The rats underwent a standardized procedure for laparotomy (intramuscular anesthesia with ketamine/rompum, shaving with animal clippers, betadine scrub, alcohol scrub). A 2 cm incision was then made on the midline. A double-walled gelatin capsule was placed on the right side of the abdomen through the incision. The animals were subcutaneously injected with the peptides (detailed below) (100 μg/kg/day) for 3 days prior to surgery, and then for 11 days until necropsy. The abdominal wall and skin was then sutured closed using two layers of 4-0 Ethilon suture. Following surgery, the rats received analgesic for three days and were observed twice daily for signs of morbidity and mortality.

Setting [7] is: single dose in CMC in the subcutaneous space, FIG. 10.
Setting [8] is: single dose in CMC in the subcutaneous space, FIG. 11.

Regarding Tyr-Ile-His-Pro-Phe (YIHPF) [AII(4-8)], the effectiveness entry in experiment [1] is listed as “not to be effective; also recorded: ineffective”.
Consider Asp-Arg-Val-Tyr-Ile-His-Pro-Phe [AII], for which the mitogenesis and chemotaxis result in experiment [2] is given as “increases”. The “release of growth factors and extracellular matrices” value in experiment [2] was “increases”. Further, the angiogenic entry (in the experiment with rabbit corneal eye; in experiment [4]) was “angiogenic” each time. Moreover, the “proliferation of primary human keratinocytes” value in experiment [3] is given as “stimulate proliferation”. The “rate of wound healing” value in the experiment on wound tissue was “significantly increases”.
On to DR(nor)YIHP (DR[Nle]YIHP) [9GD], for which, in experiment [5], the “early inflammation and wound dehiscence” value is reported as “reduced”; the “number of incisions that were free of scar” value was “increased”; the overall scar formation entry was “increased”; the healing time result was “accelerated”. Further, in experiment [5], the “number of incisions with no scar by gross observations” value is “increased”. Moreover, the healing result in experiment [5] (setting [7]) is recorded as “accelerated healing”. Besides, the scar formation result in experiment [5] (setting [8]) is “reduced scar formation”. For the same substance, in experiment [5] (single dose, systemic), the healing result was “did not accelerate healing” and the scar formation result was “did reduce scar formation”. Besides, in experiment [6], the “scar apparent upon gross observation” value was “no scar was apparent” and the wound closure result is listed as “complete”.
Take DRKYIHP [5GD]: in experiment [6], the “scar apparent upon gross observation” value was “no scar was apparent” and the wound closure entry was “complete”.
For “Asp-Arg-Val-Tyr-Ile-His-Pro (DRVYIHP) [AII(1-7)]”, in experiment [5], the “early inflammation and wound dehiscence” value is “reduced”; the “number of incisions that were free of scar” value is given as “increased”; the overall scar formation result is on record as “increased”; the healing time result is “accelerated”. Moreover, the “number of incisions with no scar by gross observations” value in experiment [5] is “increased”. For the same substance, in experiment [5] (setting [7]), the healing result is reported as “accelerated healing”. In addition, the scar formation entry in experiment [5] (setting [8]) is reported as “reduced scar formation”. In experiment [5] (single dose, systemic), the healing entry is reported as “did not accelerate healing” and the scar formation result is “did reduce scar formation”.
Turning to His-Pro-Phe (HPF) [AII(6-8)], in experiment [1], the effectiveness entry was “not to be effective”.

(Values after patent publication US6730775B1, “Methods for limiting scar and adhesion formation” (University of Southern California, priority 1999, dated 2004).)
